Experimental data published in US20200390755A1, “COMPOUND FOR TREATING NERVOUS SYSTEM DISEASES AND USE THEREOF” (SHAANXI MICOT TECHNOLOGY CO., LTD., priority 2018, published 2020).

Legend:
[1] = molecular target: T1, TrkB receptor (Mus musculus, UniProt P15209); experiment: Western blotting of p-TrkB and t-TrkB in primary cortical neuron cells; assay type: cell-based; conditions: 500 nM, 10 min at 37° C., Vehicle = 100, n = 3
T1 construct: The culture continued until the primary cortical neuron cells mature; endogenous in cells; host or cells: primary cortical neurons from E18 mouse embryos (N171-82Q WT male x B6C3F1/J female)
T1 sequence (P15209 32-821): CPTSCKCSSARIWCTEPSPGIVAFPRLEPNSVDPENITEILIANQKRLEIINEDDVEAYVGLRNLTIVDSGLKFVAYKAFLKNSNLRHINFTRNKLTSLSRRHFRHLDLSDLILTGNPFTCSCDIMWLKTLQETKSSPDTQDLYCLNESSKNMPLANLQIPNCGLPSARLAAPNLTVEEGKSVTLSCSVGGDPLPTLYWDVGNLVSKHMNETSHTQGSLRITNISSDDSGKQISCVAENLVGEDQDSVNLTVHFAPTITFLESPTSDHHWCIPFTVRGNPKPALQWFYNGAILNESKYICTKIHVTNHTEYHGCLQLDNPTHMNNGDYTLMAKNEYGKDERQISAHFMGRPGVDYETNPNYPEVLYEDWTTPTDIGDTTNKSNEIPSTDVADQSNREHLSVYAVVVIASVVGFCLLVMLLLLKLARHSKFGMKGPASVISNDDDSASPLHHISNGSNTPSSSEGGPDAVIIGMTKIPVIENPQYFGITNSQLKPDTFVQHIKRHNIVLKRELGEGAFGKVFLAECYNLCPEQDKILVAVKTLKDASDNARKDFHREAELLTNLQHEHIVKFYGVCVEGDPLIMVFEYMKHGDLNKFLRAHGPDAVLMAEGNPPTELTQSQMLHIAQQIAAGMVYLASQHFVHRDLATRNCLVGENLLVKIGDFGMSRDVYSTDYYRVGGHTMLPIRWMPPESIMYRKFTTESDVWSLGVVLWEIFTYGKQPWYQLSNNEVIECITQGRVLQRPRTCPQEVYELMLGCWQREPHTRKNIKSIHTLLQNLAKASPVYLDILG
Experimental: N171-82Q WT male mice were mated with female B6C3F1/J hybrid mice. B6C3F1/J mice 18 days after pregnancy were anesthetized with isoflurane and dissected to remove embryos, which were then placed in a 10 cm Petri dish containing Leibovitz's buffer. The head of the embryo was cut off, and the brain was peeled off to obtain the whole mouse brain, which was then placed in a new 10 cm Petri dish containing Leibovitz's buffer. The neurocortex of the brain was separated and placed in a 15 mL centrifuge tube containing 3 mL Leibovitz's buffer. The centrifuge tube was centrifuged at 1000 rpm for 1 minute, and the Leibovitz's buffer was gently removed from the centrifuge tube, and then 750 μL of 0.25% trypsin-EDTA and 75 μL of 0.1% DNase (2000 U/mL) were added to digest at 37° C. for 15 min. 750 μL of DMEM medium containing 5% FBS was added to stop the digestion. The cells were mixed well, and centrifuged at 1000 rpm for 5 minutes. Trypins/DNase mixture was removed, and 750 μL of Neurobasal medium (B-27, Glutamax, P/S) was added. The cells were mixed by gently pipetting with a pipette for 30 times. The cell suspension was filtered with a 40 µm filter and transferred to another new 50 mL centrifuge tube. 10 μL of the cell suspension was added to 90 μL of DMEM (diluted 10 times), and 10 μL of the liquid mixture was placed on a hemocytometer so that the suspension filled between the cover slip and the counting plate for counting. The cells in the four large grids of the plate were counted, wherein for the cells across the line, only the cells on the left and upper side lines were counted. The following formulas were used:
Number of cells/mL=total number of cells in the four large grids/4×10^4/mL
Total number of cells/mL=total number of cells in the four large grids/4×10^4/mL×dilution factor.
After counting, the cells were diluted with Neurobasal selection medium so that 1 mL of Neurobasal culture medium contained 0.5×10^6 cells.
200 μL of PDL solution previously heated in a 37° C. water bath was added to each well of a 6-well plate, and incubated at 37° C. overnight to allow PDL to evenly coat the well plate. The PDL solution was absorbed and the plate was washed twice with PBS. Before use, the PBS remaining on the plate was absorbed and the cover was opened to dry the plate in a super clean bench. 2 mL of cell suspension was added to each well (37° C., 5% CO2), and the cells were cultured until adherence. The culture medium was replaced and the culture continued for 3 days, and then the growth status of neurons was observed. Every other 3 days, half of the medium was removed and replaced with fresh complete medium. The culture continued until the primary cortical neuron cells mature (usually mature on the 14th day of culture).
After the primary cortical neuron cells have matured, appropriate amount of freshly prepared culture medium was added until final volume in each well was 2 mL. The experiment included a blank control group (Vehicle), a positive control group BDNF (10 ng/mL), a control compound group (500 nM), and 6 test compound groups (500 nM). Three repeats were set for each dose. After incubating at 37° C. for 10 min, the culture solution was discarded and the cells were washed with pre-chilled PBS, and then 40 μL of pre-chilled lysate (RIPA buffer 10 mL and protease and phosphatase inhibitor 100 μL) was added to each well for lysis on ice for 30 min. After lysis, the cell was crushed by ultrasonic cell crusher, centrifuged at 14000 rpm for 20 min at 4° C. The supernatant was transferred to a new 1.5 mL centrifuge tube to extract protein. Western blotting experiments were used to detect the protein levels of (A) p-TrkB and t-TrkB; (B) p-AKT and t-AKT.
The software Sigmaplot 13.0 was used for statistical analysis of the data, and the data of each group was expressed as mean±standard error (x±SEM). […]

[2] = test system: rats with permanent cerebral ischemia; experiment: Cerebral infarction volume by TTC staining in rats with permanent cerebral ischemia; assay type: in vivo, SD rats; conditions: 20 mg/kg by gavage, after 7 days of ischemia
Experimental: SD rats, male, about 220-250 g, were provided by the Experimental Animal Center of Medical College of Xi'an Jiaotong University. Rats were randomly divided into groups of 14 animals/group. The experiment included a sham group, a model group, a positive control Edaravone group and test compound groups 1-5.12 hours before the operation, the rats were fasted and were free to drink water, and then used for the modeling method of middle cerebral artery occlusion with thread plug. The rats were fixed on a wooden board after anesthesia, the common carotid artery was ligated proximally, the external carotid artery was ligated distally, and the main internal carotid artery into skull was retained. A ligature line was reserved at the bifurcation of the internal carotid artery for temporarily clamping the distal end of the internal carotid artery using an arterial clip. A 3-0 nylon thread with a length of 5 cm and a spherical shape with a diameter of 0.3 mm at the tip was inserted into the common carotid artery through a small incision at the bifurcation. The arterial clamp was loosened, and the thread plug was slowly advanced to 18˜20 mm. When there was resistance, the progress of the thread was stopped. At this time, the nylon thread plug entered the middle artery and blocked the blood flow, and then the ischemic phase began. The skin was sutured. In the sham operation group, the same procedure was executed, except that no thread plug was inserted.
Administering was performed at 0 h, 3 h, 6 h and 12 h after ischemia, and then administering was performed once a day for 7 consecutive days. The test compound was prepared into a 4 mg/mL solution with 1% CMC-Na solution and administered by gavage. The edaravone group received an intravenous dose of 0.078 mg/kg.
3) Percentage of cerebral infarction volume after 7 days of ischemia: TTC staining was used to observe the infarct area.
The rats in each group were sacrificed by spinal dislocation […]. The brain tissue was quickly peeled off and placed in the refrigerator at −20° C. to freeze to an appropriate hardness to remove the olfactory bulb, cerebellum and low brain stem. Continuous coronary slices were performed at 1 mm intervals, to obtain a total of 5 slices. The slices were placed in 0.5% triphenyltetrazolium chloride (TTC) in phosphate buffer (pH=7.4) and incubated in a 37° C. incubator without light for 15 min, and then fixed in paraformaldehyde and observed (fixed time should be within 24 h). The normal brain tissue is rosy red, and infarcted brain tissue is pale. After taking the picture, the slice was scanned to save the image. The area of cerebral infarction and the total area of slices were calculated using Image J processing software.
Cerebral infarction volume (%)=(volume of the contralateral hemisphere of the operation−volume of the uninfarcted portion of the hemisphere of the occlusion)/volume of the contralateral hemisphere of the operation×100%
(2) Statistical analysis of data: SPSS18.0 statistical software was used for statistical analysis and the data of each group was expressed as the mean standard error (x±SEM). One-way ANOVA and multiple comparisons between groups were used to compare the averages of measurement data among multiple groups. Rank score test was used for behavioral grading data, and Kaplan-Meier method was used for mortality. P<0.05 was considered statistically significant.

Structure (SMILES)	Relative intensity of p-TrkB/t-TrkB protein [1]	Volume percentage of cerebral infarction [2] [%]
CN(C)C1CCN(c2ccc(-c3cc(=O)c4ccc(O)c(O)c4o3)cc2)CC1 [Example 3, 2-(4-(4-(dimethylamino)piperidin-1-yl)phenyl)-7,8-dihydroxy-4H-chromen-4-one]	234.685 ± 14.695	20.93 ± 7.65
O=c1cc(-c2ccc(N3CCCCC3)cc2)oc2c(O)c(O)ccc12 [Example 1, 7,8-dihydroxy-2-(4-(piperidin-1-yl)phenyl)-4H-chromen-4-one]	216.727 ± 8.642	19.58 ± 9.56
COc1ccc2c(=O)cc(-c3ccc(N4CCCCC4)cc3)oc2c1OC [Example 2, 7,8-dimethoxy-2-(4-(piperidin-1-yl)phenyl)-4H-chromen-4-one]	206.453 ± 7.574	19.93 ± 8.89
CC1CC(C)CN(c2ccc(-c3cc(=O)c4ccc(O)c(O)c4o3)cc2)C1 (stereo not shown) [Example 5, 2-(4-(3,5-dimethylpiperidin-1-yl)phenyl)-7,8-dihydroxy-4H-chromen-4-one]	213.254 ± 12.379	20.50 ± 6.38
CC1(C)CCN(c2ccc(-c3cc(=O)c4ccc(O)c(O)c4o3)cc2)CC1 [Example 4, 2-(4-(4,4-dimethylpiperidin-1-yl)phenyl)-7,8-dihydroxy-4H-chromen-4-one]	216.198 ± 8.865	21.33 ± 7.68
